Among the data in PubChem BioAssay AID330 (DTP/NCI, 2004) are T/C values, retold here.

Several values for one entry are separate records, joined by “and”; a condition that tells them apart may be missing. Equal values may be shown once. Toxic doses and inconclusive results are not listed.

The test system of this test is P388 leukemia ip, CD2F1 mice, survival T/C. The test is described as follows: NCI In Vivo Anticancer Drug Screen. Data for tumor model P388 Leukemia (intraperitoneal) in CD2F1 (CDF1) mice. The following applies: endpoint: median survival time, higher = longer survival. In a few lines:
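Mice carrying the transplanted tumor received test compound or vehicle. Survival was recorded in each group, and the value is the treated-group measurement divided by that of the vehicle-treated control group.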

Take `CC1=C(C(=O)Nc2cccc3ccccc23)C(c2cccc([N+](=O)[O-])c2)C(C(=O)Nc2cccc3ccccc23)=C(C)N1`: the T/C by setting is: (dose: 7.5 mg/kg/injection, schedule: Q01DX005 (ip), vehicle: Klucel (hydroxypropylcellulose) (HPC)) 100 % of control; (dose: 15.0 mg/kg/injection, schedule: Q01DX005 (ip), vehicle: Klucel (hydroxypropylcellulose) (HPC)) 100 % of control; (dose: 30.0 mg/kg/injection, schedule: Q01DX005 (ip), vehicle: Klucel (hydroxypropylcellulose) (HPC)) 103 % of control.
Turning to `O=C1C[C@@H]2OCC=C3C[N+]4([O-])CC[C@]56c7ccccc7N1[C@H]5[C@H]2[C@H]3C[C@@H]64` (stereo partly specified), the T/C (dose: 12.5 mg/kg/injection, schedule: Q01DX005 (ip), vehicle: saline) was 95 % of control and the T/C (dose: 25.0 mg/kg/injection, schedule: Q01DX005 (ip), vehicle: saline) is 88 % of control.
Turning to `COC(=O)c1ccccc1NC1=NS(=O)(=O)c2ccccc2N1C`, the T/C is, setting by setting: (dose: 50.0 mg/kg/injection, schedule: Q01DX005 (ip), vehicle: saline with Tween-80) 87 % of control; (dose: 100.0 mg/kg/injection, schedule: Q01DX005 (ip), vehicle: saline with Tween-80) 86 % of control; (dose: 200.0 mg/kg/injection, schedule: Q01DX005 (ip), vehicle: saline with Tween-80) 87 % of control.
For the molecule `CC(C)c1nc2c(n1Cc1ccccc1)C=C(C(=O)c1ccccc1)S(=O)(=O)C(C(=O)c1ccccc1)=C2`, the T/C (dose: 60.0 mg/kg/injection, schedule: Q01DX005 (ip), vehicle: saline with Tween-80) is 96 % of control; the T/C (dose: 120.0 mg/kg/injection, schedule: Q01DX005 (ip), vehicle: saline with Tween-80) is 90 % of control; the T/C (dose: 240.0 mg/kg/injection, schedule: Q01DX005 (ip), vehicle: saline with Tween-80) was 92 % of control.
Turning to `O=S(=O)(OI(O)c1ccccc1)c1ccccc1`, the T/C by setting is: (dose: 12.5 mg/kg/injection, schedule: Q01DX009 (ip), vehicle: water) 98 % of control; (dose: 25.0 mg/kg/injection, schedule: Q01DX009 (ip), vehicle: water) 116 % of control; (dose: 50.0 mg/kg/injection, schedule: Q01DX009 (ip), vehicle: water) 105 % of control and 113 % of control.
With `CCCCCCCCCCCCCCCCCN1CCS(=O)(=O)CC1`, the T/C is, setting by setting: (dose: 50.0 mg/kg/injection, schedule: Q01DX009 (ip), vehicle: Klucel (hydroxypropylcellulose) (HPC)) 100 % of control; (dose: 100.0 mg/kg/injection, schedule: Q01DX009 (ip), vehicle: Klucel (hydroxypropylcellulose) (HPC)) 94 % of control; (dose: 200.0 mg/kg/injection, schedule: Q01DX009 (ip), vehicle: Klucel (hydroxypropylcellulose) (HPC)) 88 % of control.
Take `CCC[CH2][Sn]([CH2]CCC)([O]C(=O)CCC(C)=O)[O]C(=O)CCC(C)=O`: the T/C runs as follows: (dose: 3.12 mg/kg/injection, schedule: Q01DX009 (ip), vehicle: Klucel (hydroxypropylcellulose) (HPC)) 118 % of control and 119 % of control; (dose: 12.5 mg/kg/injection, schedule: Q01DX009 (ip), vehicle: Klucel (hydroxypropylcellulose) (HPC)) 163 % of control.
Take `Cc1cccc(/C=N\N=C\c2cccc(C)n2)n1`: the T/C by setting is: (dose: 100.0 mg/kg/injection, schedule: Q01DX009 (ip), vehicle: saline with Tween-80) 100 % of control; (dose: 200.0 mg/kg/injection, schedule: Q01DX009 (ip), vehicle: saline with Tween-80) 100 % of control.
